Among the data in ChEMBL document CHEMBL3132769, “Fragment growing to retain or alter the selectivity of anchored kinase hinge-binding fragments” (Medchemcomm, 2014) are inhibition values, retold here.

Assay [1] has as its target Serine/threonine-protein kinase MARK2 (Homo sapiens) (UniProt Q7KZI7). The assay is described as follows: Inhibition of human full length MARK2 expressed in baculovirus assessed as substrate phosphorylation using fluorescence-labelled peptides as substrate at 0.1 uM after 90 mins by microfluidic peptide phosphorylation assay.
In assay [2] the test system is Fibroblast growth factor receptor 2 (Homo sapiens), P21802 [N549H]. The assay is described as follows: Inhibition of human FGFR2 N549H mutant catalytic domain expressed in baculovirus assessed as substrate phosphorylation using fluorescence-labelled peptides as substrate at 0.1 uM after 90 mins by microfluidic peptide phosphorylation assay.
Assay [3] concerns the target Ribosomal protein S6 kinase alpha-3 (Homo sapiens) (UniProt P51812). The assay is described as follows: Inhibition of human full length RSK2 expressed in baculovirus assessed as substrate phosphorylation using fluorescence-labelled peptides as substrate at 420 uM after 90 mins by microfluidic peptide phosphorylation assay.
Assay [4] has as its target Serine/threonine-protein kinase MARK2 (Homo sapiens) (UniProt Q7KZI7). The assay is described as follows: Inhibition of human full length MARK2 expressed in baculovirus assessed as substrate phosphorylation using fluorescence-labelled peptides as substrate at 420 uM after 90 mins by microfluidic peptide phosphorylation assay.
Assay [5] addresses T1, Serine/threonine-protein kinase BRSK2 (Homo sapiens) (UniProt Q8IWQ3).
T1 sequence (whole entry): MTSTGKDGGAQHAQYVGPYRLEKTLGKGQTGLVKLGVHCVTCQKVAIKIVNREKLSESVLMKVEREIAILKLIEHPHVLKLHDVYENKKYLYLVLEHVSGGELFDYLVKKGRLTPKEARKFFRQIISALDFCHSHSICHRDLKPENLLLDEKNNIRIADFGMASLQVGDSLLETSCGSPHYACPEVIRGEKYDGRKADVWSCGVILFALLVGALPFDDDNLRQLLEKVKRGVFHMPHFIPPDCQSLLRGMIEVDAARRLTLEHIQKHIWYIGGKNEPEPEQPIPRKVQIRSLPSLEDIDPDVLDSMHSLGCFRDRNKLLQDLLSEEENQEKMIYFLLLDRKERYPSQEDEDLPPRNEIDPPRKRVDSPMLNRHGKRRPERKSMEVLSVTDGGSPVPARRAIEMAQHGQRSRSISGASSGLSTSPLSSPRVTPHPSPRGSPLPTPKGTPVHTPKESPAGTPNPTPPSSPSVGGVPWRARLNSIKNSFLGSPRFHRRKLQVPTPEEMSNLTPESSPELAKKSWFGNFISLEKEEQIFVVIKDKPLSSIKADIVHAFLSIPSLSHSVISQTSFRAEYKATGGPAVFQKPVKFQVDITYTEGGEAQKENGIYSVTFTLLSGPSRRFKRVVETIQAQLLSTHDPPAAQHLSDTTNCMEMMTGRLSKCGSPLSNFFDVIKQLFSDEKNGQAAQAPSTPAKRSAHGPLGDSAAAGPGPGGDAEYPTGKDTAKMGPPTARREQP
The assay is described as follows: Inhibition of human truncated BRSK2 expressed in baculovirus assessed as substrate phosphorylation using fluorescence-labelled peptides as substrate at 95 uM after 90 mins by microfluidic peptide phosphorylation assay.

Assay [6] concerns the target T2, Serine/threonine-protein kinase D1 (Homo sapiens) (UniProt Q15139).
T2 sequence (whole entry): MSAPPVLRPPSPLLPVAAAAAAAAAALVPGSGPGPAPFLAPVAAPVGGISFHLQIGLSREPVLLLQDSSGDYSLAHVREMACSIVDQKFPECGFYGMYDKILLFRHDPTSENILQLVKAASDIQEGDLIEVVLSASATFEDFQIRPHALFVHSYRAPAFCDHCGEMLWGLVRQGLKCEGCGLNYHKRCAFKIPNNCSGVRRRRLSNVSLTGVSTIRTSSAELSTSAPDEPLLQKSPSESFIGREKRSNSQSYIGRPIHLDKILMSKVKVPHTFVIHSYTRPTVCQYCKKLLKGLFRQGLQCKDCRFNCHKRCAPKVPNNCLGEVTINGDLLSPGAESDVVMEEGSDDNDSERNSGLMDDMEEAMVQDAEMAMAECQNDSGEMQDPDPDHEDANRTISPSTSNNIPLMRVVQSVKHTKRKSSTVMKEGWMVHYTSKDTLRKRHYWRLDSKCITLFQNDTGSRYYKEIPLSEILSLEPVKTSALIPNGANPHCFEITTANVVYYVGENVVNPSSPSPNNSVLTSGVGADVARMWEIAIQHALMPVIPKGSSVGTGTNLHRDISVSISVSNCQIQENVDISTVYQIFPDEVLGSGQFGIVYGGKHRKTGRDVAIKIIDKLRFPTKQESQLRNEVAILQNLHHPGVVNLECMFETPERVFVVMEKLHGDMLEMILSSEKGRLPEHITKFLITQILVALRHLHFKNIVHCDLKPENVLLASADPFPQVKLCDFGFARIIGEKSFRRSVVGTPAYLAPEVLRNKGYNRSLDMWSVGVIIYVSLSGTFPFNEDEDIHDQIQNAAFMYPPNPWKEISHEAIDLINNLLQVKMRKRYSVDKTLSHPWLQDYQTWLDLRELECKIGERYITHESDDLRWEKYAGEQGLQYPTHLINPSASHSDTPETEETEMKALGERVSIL
The assay is described as follows: Inhibition of human full length PKD1 expressed in baculovirus assessed as substrate phosphorylation using fluorescence-labelled peptides as substrate at 8 uM after 90 mins by microfluidic peptide phosphorylation assay.

Assay [7] deals with Casein kinase I isoform delta (Homo sapiens) (UniProt P48730). The assay is described as follows: Inhibition of human CK1D catalytic domain expressed in Escherichia coli cell assessed as substrate phosphorylation using fluorescence-labelled peptides as substrate at 8 uM after 90 mins by microfluidic peptide phosphorylation assay.
Assay [8] has as its target T3, Aurora kinase C (Homo sapiens) (UniProt Q9UQB9).
T3 sequence (whole entry): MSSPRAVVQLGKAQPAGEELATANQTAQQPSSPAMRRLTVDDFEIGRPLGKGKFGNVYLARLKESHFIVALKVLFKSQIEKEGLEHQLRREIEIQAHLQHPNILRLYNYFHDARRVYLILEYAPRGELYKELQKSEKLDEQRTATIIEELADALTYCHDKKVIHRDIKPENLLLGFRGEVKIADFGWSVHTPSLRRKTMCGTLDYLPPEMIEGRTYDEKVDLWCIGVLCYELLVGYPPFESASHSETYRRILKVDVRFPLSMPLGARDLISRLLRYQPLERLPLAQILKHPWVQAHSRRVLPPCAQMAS
The assay is described as follows: Inhibition of human full length AurC expressed in baculovirus assessed as substrate phosphorylation using fluorescence-labelled peptides as substrate at […] after 90 mins by microfluidic peptide phosphorylation assay.

Assay [9] addresses MAP/microtubule affinity-regulating kinase 3 (Homo sapiens) (UniProt P27448). The assay is described as follows: Inhibition of human full length c-TAK1 expressed in Escherichia coli cell assessed as substrate phosphorylation using fluorescence-labelled peptides as substrate at 0.06 uM after 90 mins by microfluidic peptide phosphorylation assay.
Assay [10] concerns the target Tyrosine-protein kinase ABL1 (Homo sapiens) (UniProt P00519). The assay is described as follows: Inhibition of human full-length ABL expressed in baculovirus assessed as substrate phosphorylation using fluorescence-labelled peptides as substrate at 70 uM after 90 mins by microfluidic peptide phosphorylation assay.
The target of assay [11] is Tyrosine-protein kinase Fer (Homo sapiens) (UniProt P16591). The assay is described as follows: Inhibition of human FER catalytic domain expressed in baculovirus assessed as substrate phosphorylation using fluorescence-labelled peptides as substrate at 70 uM after 90 mins by microfluidic peptide phosphorylation assay.

The inhibition is the drop in the measured response relative to a control, in per cent.

Sequence of Serine/threonine-protein kinase MARK2 (Homo sapiens) (Q7KZI7 whole entry, the tested form may be a part): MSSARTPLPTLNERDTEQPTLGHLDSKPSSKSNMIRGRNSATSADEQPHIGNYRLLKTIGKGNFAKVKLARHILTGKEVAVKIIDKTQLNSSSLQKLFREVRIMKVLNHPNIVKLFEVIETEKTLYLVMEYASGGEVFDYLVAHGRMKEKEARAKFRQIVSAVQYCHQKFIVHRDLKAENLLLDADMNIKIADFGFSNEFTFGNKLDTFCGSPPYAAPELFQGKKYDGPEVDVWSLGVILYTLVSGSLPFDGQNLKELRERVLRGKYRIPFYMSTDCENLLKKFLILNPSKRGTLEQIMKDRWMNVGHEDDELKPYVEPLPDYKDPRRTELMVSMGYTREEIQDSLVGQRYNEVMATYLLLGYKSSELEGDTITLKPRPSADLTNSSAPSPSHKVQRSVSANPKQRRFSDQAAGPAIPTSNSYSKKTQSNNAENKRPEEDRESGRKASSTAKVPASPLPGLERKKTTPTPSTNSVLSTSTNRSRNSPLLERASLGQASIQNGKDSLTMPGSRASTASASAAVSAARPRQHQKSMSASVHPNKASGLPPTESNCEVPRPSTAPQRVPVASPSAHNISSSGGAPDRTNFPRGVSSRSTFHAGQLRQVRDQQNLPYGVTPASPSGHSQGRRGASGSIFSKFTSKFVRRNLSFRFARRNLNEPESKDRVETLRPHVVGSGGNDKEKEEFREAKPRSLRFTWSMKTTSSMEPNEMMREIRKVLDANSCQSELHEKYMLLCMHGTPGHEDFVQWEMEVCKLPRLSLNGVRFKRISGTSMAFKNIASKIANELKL
Sequence of Tyrosine-protein kinase Fer (Homo sapiens) (P16591 whole entry, looked up, the tested form may be a part): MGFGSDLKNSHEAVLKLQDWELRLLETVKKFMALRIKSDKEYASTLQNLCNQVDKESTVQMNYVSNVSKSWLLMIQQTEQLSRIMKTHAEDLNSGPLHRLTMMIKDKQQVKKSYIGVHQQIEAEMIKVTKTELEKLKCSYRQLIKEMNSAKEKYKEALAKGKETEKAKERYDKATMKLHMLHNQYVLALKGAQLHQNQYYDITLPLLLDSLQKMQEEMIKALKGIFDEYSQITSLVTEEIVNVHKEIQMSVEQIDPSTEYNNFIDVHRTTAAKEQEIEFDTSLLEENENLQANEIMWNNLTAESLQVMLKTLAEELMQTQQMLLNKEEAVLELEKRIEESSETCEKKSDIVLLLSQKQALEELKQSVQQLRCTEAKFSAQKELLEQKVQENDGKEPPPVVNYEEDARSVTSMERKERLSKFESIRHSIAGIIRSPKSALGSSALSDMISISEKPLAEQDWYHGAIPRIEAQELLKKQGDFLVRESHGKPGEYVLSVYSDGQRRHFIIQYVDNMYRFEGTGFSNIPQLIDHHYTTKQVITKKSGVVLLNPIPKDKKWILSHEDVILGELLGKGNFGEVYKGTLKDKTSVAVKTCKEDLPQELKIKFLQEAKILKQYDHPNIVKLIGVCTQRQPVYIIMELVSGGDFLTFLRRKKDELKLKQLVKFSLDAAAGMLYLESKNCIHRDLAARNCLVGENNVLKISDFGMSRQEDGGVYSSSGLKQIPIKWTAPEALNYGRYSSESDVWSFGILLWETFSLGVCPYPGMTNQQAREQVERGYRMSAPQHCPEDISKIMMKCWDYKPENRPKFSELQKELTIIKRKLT
Sequence of MAP/microtubule affinity-regulating kinase 3 (Homo sapiens) (P27448 whole entry, looked up): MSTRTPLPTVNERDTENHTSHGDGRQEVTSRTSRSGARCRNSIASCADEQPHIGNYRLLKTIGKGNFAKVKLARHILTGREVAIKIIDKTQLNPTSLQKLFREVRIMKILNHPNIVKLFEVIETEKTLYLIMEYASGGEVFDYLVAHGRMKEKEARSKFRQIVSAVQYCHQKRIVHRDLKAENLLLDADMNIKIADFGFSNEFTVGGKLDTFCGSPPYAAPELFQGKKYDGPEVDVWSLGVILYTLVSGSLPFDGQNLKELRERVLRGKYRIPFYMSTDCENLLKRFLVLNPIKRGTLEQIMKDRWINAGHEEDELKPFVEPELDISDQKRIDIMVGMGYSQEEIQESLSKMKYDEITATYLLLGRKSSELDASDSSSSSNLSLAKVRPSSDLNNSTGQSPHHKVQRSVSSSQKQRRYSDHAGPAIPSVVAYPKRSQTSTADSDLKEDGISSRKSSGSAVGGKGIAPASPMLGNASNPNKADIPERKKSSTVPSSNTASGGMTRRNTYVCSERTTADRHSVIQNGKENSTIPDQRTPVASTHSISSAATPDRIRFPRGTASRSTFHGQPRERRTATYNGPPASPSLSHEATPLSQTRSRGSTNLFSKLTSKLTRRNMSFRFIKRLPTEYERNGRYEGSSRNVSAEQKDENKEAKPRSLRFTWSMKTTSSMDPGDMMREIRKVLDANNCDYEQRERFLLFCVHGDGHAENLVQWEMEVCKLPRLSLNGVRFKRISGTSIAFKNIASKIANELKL
Sequence of Fibroblast growth factor receptor 2 (Homo sapiens), P21802 [N549H] (P21802 whole entry N549H, the tested form may be a part): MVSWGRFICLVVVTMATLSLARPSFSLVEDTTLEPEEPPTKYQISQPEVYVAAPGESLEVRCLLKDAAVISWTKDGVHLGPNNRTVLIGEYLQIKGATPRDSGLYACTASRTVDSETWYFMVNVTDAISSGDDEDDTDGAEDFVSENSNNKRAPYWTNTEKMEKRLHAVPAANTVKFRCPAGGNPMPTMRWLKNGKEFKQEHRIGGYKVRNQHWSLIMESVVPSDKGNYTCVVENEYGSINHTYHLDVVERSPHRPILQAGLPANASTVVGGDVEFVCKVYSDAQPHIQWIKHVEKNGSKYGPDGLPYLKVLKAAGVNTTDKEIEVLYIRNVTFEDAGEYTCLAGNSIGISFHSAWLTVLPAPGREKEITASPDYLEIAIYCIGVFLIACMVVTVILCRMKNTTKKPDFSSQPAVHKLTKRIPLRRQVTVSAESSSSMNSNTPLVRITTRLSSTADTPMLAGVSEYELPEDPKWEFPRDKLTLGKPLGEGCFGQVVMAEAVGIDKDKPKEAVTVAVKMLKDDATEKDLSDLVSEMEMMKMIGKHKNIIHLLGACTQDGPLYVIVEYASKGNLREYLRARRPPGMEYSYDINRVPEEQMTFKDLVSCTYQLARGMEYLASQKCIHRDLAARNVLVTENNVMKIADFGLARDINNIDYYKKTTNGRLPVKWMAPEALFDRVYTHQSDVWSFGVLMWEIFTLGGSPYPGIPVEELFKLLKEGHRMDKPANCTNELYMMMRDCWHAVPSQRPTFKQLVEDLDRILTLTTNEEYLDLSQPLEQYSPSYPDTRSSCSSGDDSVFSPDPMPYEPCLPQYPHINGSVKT
Sequence of Casein kinase I isoform delta (Homo sapiens) (P48730 whole entry, looked up, the tested form may be a part, canonical isoform): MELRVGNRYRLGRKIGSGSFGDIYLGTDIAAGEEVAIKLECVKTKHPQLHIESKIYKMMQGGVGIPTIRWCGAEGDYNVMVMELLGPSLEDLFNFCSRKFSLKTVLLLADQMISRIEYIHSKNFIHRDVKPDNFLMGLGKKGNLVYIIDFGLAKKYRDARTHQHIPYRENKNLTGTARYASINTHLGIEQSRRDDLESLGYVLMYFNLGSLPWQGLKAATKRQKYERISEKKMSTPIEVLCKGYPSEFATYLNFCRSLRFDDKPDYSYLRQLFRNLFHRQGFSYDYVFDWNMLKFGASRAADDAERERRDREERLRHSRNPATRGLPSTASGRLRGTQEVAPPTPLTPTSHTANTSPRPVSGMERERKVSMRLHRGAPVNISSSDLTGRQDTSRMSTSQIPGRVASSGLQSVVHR
Sequence of Ribosomal protein S6 kinase alpha-3 (Homo sapiens) (P51812 whole entry): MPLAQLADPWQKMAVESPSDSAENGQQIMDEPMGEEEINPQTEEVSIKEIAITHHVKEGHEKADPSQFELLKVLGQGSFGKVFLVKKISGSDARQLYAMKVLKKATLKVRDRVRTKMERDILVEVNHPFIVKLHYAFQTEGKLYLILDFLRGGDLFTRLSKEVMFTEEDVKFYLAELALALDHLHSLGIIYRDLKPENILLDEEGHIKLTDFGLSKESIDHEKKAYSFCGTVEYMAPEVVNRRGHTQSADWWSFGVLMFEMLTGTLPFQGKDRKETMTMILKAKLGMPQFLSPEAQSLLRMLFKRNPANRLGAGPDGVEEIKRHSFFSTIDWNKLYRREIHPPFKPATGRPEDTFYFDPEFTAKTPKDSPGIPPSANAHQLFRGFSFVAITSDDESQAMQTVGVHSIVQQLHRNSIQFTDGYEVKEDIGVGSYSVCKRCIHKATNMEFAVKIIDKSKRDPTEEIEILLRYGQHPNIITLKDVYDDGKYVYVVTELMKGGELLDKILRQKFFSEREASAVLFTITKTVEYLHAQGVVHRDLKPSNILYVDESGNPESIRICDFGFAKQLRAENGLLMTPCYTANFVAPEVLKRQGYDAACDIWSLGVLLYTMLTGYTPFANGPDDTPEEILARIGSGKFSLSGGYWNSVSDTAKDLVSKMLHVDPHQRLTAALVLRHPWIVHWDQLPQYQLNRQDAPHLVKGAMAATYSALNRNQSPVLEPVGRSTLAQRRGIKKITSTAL

Take `C[C@H](CN(C)C)Oc1nc(Nc2cc3cccc(Cl)c3cn2)cnc1C#N`: the inhibition was 2% in assay [1] and 7.5% in [2].

Take `c1nc(N2CCOCC2)c2nc[nH]c2n1`: the inhibition in assay [3] amounted to 95%; in assay [4], 88%.

With `NCCc1ccc(-c2ncnc3[nH]cnc23)cc1`, the inhibition in assay [5] amounted to 40%.

Regarding `NCC1CCN(c2ncnc3[nH]ccc23)CC1`, the inhibition in assay [6] stood at 75.5%; in [7], 25.5%.

With `COC(=O)c1cnc(Nc2cnc(C#N)cn2)cc1NCC1CCNCC1`, the inhibition in assay [8] was determined as 7.5%.

Turning to `NC1(Cc2ccc(Cl)cc2)CCN(c2ncnc3[nH]ccc23)CC1`, in assay [9], the inhibition worked out at 0%.

Consider `CNCc1ccc(-c2ncnc3[nH]cnc23)cc1`, for which the inhibition was determined as 47.5% in [10] and 30% in assay [11].
